Source: patent US4440757A, “Pharmaceutical composition comprising derivative of aminobenzoic acid for regulating prostaglandin” (priority 1978, dated 1984)
Where two headings read alike, the source gives them in different places.

Key:
[1] = test system: Salmonella typhimurium TA 98; experiment: Mutagenicity, reversion assay, TA 98; assay type: cell-based
Description: (§1) (ii) The strains TA 98 and TA 100 (both are histidine requiring) of Salmonella typhimurium were used in the reversion assay.
(§2) Into 2 ml of a soft agar culture medium (the medium itself contains 6 g of sodium chloride and 6 g of agar in 1000 ml of distilled water) to which one tenth by volume of an aqueous solution of 0.5 mM of biotin and 0.5 mM of histidine had been added, 0.1 ml of the bacterial suspension and 0.1 ml of an aqueous solution of the present substance were admixed and the mixture was layered on the minimum agar culture medium. After 2 days of incubation at 37° C., the number of revertant colonies was counted. Furylfuramide (AF-2) was used as the positive control.

[2] = Acute oral toxicity (Litchfield-Wilcoxon); details: in vivo, mouse, 7 days
Description: The acute oral toxicity of the present substances were examined by using groups of ICR-JCL mouse and orally administering each of the representatives of present substances forcibly as an aqueous solution in distilled water or as an aqueous suspension also in distilled water at predetermined dosages, respectively. After observing the toxicological symptoms, if any, for 6 days, and recording the mortality until 7th day of the administration, LD50 (acute oral) was calculated by the method of Litchfield-Wilcoxon, and autopsy was carried out on dead mice and live mice to obtain informations.

[3] = test system: Salmonella typhimurium TA 100; experiment: Mutagenicity, reversion assay, TA 100; assay type: cell-based
Description: as §1, §2

Ehrlich cancer = experiment: Cancer proliferation and PGE in the cancer cells (Ehrlich); assay type: in vivo, C57BL/6 mouse; details: 100 mg/kg i.p. every other day, 14th day; for Weight of cancer: control 1.30; for Content of PGE in the cancer: control 1.77
Description: Following the same method as in Example 12, the anti-cancer action against transplanted Ehrlich cancer in C57BL/6 mouse, and the amount of PGE in the cancer cells in proliferation in the living body of the mouse were examined in the cases where each one compound of the present invention, Specimens Nos. 1, 2, 3, 4, 5, 6, 8, 9, 10 and 11 was intraperitoneally administered every other day from the next day of the transplantation in total 6 times at a dosage of 100 mg/kg.
The results of determination of the weight of cancer extirpated from the sacrificed mouse on 14th day of the transplantation of the cancer cells, 1×10^6 in number per animal, and content of PGE of the extirpated cancer are shown in the following Table 13: […]

dog's stomach = assay type: in vivo, Beagle dog
Description: Five grams of the present substance (each of Specimens Nos. 1, 2, 3, 4, 5, 6, 7, 8, 9, 10 and 11) and of aspirin were respectively administered to each Beagle of body weight of 9 to 12 kg as an aqueous suspension in distilled water of adjusted pH of 3, and after 90 min of the administration, the state of hemorrhage in the dog's stomach was examined.

male Sprague-Dowley rats [4] = experiment: Leakage of dye-staff after skin stimulation with histamine and PGE1; assay type: in vivo; details: challenge agents only, no present substance
Description: To the three groups of male Sprague-Dowley rats of the total six groups, the respective present substances (Specimens Nos. 4, 7 and 8) were forcibly administered by oral route at the rate of 1000 mg/kg, the other three groups being administered nothing at this time. After 60 min of the administration, a mixture of PGE1 (2.5×10^-11 mol/animal) and histamine (2×10^-8 mol/animal) was intracutaneously injected under light […] into the shaved skin of an abdominal part of four groups of the rats including three groups administered with the present substance.

male Sprague-Dowley rats [5] = experiment: Foot-oedema induced by carrageenin and PGE1; assay type: in vivo; details: challenge agents only, no present substance; 60 min
Description: The three groups of male Sprague-Dowley rats of total six groups, the respective present substances, Specimens Nos. 4, 7 and 8 were administered forcibly by oral route at a rate of 1000 mg/kg, the other three groups of the same kind of rats being administered nothing at this time.
After 60 min of the administration, 0.1 ml of an aqueous solution of carrageenin (1 mg) and PGE1 (0.1 μg) was injected onto the hind paw of the four groups of the rats including the three groups administered with the present substance. To one group of remaining two groups not administered with the present substance, 0.1 ml of an aqueous solution containing only carrageenin at 1% was injected, and to the other one group not administered with the present substance, an aqueous solution containing only PGE1 was injected.
The volume of the thus swollen foot of the groups of the thus treated rats was measured by the water-displacement method, and the results are shown in Table 17 by the increment of the volume of foot as compared to the volume of foot before the treatment as percentage.

Bacillus subtilis H 17 = experiment: Mutagenicity, rec-assay, strain H 17; assay type: cell-based; details: 10 μg/disk, negative control
Description: (§3) As the first stage, the present substances were tested by rec-assay (i), and as the second stage, they were tested by reversion assay (ii).
(§4) (i) A strain of Bacillus subtilis M 45, a defectant of recombination repair, and a wild strain of Bacillus subtilis H 17 keeping recombination repair activity were inoculated to make their own streaks not crossed at the start on a B-2 agar culture plate (made by dissolving 10 g of meat extract, 10 g of polypeptone, 5 g of sodium chloride and 15 g of agar in 1000 ml of distilled water at pH 7.0). Then, a paper disc of 8 mm in diameter, which absorbed 0.04 ml of an aqueous solution of the present substance in sterilized water was put on the surface of the agar plate so as to cover the starting point of the above-mentioned streaks of bacterial culture. The inoculated B-2 agar plate was kept at 37° C. for a night and the length of growth-inhibited region was measured.

Bacillus subtilis M 45 = experiment: Mutagenicity, rec-assay, strain M 45; assay type: cell-based; details: 10 μg/disk, negative control
Description: as §3, §4

| SMILES | Number of revertant colonies TA 98 ([1]; 5,000 μg/plate, control 13) | LD50 at 168 h [2] | Number of revertant colonies TA 100 ([3]; 5,000 μg/plate, control 149) | Weight of cancer (Ehrlich cancer) | Content of PGE in the cancer (Ehrlich cancer) | hemorrhage in the stomach (dog's stomach; dog, in vivo) | further results |
| --- | --- | --- | --- | --- | --- | --- | --- |
| COC(=O)c1ccccc1NC1O[C@H](CO)[C@@H](O)[C@H](O)[C@@H]1O (stereo partly drawn) [Specimen No. 11, Methyl o-aminobenzoate-N--D-mannoside] | 8 number per plate | > 7500 mg/kg | 95 number per plate | 0.69 g | 4.20 ng/g | no hemorrhage in the stomach was found | – |
| NCCc1c[nH]cn1 [Histamine, histamine, reference compound] | – | – | – | – | – | – | Absorbance at 620 nm (dye leakage) (male Sprague-Dowley rats [4]): 0.192 |
| CCCCC[C@H](O)/C=C/[C@H]1[C@H](O)CC(=O)[C@@H]1CCCCCCC(=O)O [PGE1, reference compound] | – | – | – | – | – | – | Percentage increment of volume of foot (male Sprague-Dowley rats [5]): 9.3%; Absorbance at 620 nm (dye leakage) (male Sprague-Dowley rats [4]): 0.066 |
| O=C(O)c1ccc(NC2(CO)OC[C@@H](O)[C@@H](O)[C@@H]2O)cc1 (stereo partly drawn) [Specimen No. 9, Sodium p-aminobenzoate-N--D-fructoside] | 5 number per plate | > 10000 mg/kg | 95 number per plate | 0.80 g | 4.32 ng/g | no hemorrhage in the stomach was found | – |
| O=C(O)c1ccc(NC2OC[C@H](O)[C@H](O)[C@H]2O)cc1 (stereo partly drawn) [Specimen No. 10, Sodium p-aminobenzoate-N--L-arabinoside] | 3 number per plate | 10800 mg/kg | 51 number per plate | 0.70 g | 4.14 ng/g | no hemorrhage in the stomach was found | – |
| NC(=O)C(=Cc1ccc([N+](=O)[O-])o1)c1ccco1 [Furylfuramide, reference compound] | – | – | – | – | – | – | Number of revertant colonies TA 98 ([1]; 0.1 μg/plate, positive control): 167 number per plate; Number of revertant colonies TA 100 ([3]; 0.1 μg/plate, positive control): 911 number per plate |
| O=C(O)c1ccccc1NC1O[C@H](CO)[C@H](O)[C@H](O)[C@H]1O (stereo partly drawn) [Specimen No. 1, Sodium o-aminobenzoate-N--D-galactoside] | 6 number per plate | 6100 mg/kg | 151 number per plate | 0.63 g | 4.10 ng/g | no hemorrhage in the stomach was found | – |
| O=C(O)c1ccc(NC2O[C@H](CO)[C@@H](O)[C@H](O)[C@H]2O)cc1 (stereo partly drawn) [Specimen No. 5, Sodium p-aminobenzoate-N--D-glucoside] | 11 number per plate | > 15000 mg/kg | 104 number per plate | 0.70 g | 3.20 ng/g | no hemorrhage in the stomach was found | – |
| O=C(O)c1ccc(NC2O[C@H](CO)[C@H](O)[C@H](O)[C@H]2O)cc1 (stereo partly drawn) [Specimen No. 6, Sodium p-aminobenzoate-N--D-galactoside] | 7 number per plate | 14600 mg/kg | 51 number per plate | 0.65 g | 3.66 ng/g | no hemorrhage in the stomach was found | – |
| NC[C@H]1O[C@H](O[C@H]2[C@H](O)[C@@H](O[C@H]3O[C@H](CO)[C@@H](O)[C@H](N)[C@H]3O)[C@H](N)C[C@@H]2N)[C@H](O)[C@@H](O)[C@@H]1O [Kanamycin] | – | – | – | – | – | – | Length of inhibition growth zone H 17 (Bacillus subtilis H 17): 4 mm; Length of inhibition growth zone M 45 (Bacillus subtilis M 45): 5 mm; difference (M 45 minus H 17) (Bacillus subtilis M 45): 1 mm |
| CC(=O)Oc1ccccc1C(=O)O [aspirin, reference compound] | – | – | – | – | – | – | hemorrhage in the stomach (dog's stomach; 5 g, 90 min after administration): hemorrhage in the stomach was observed |
| O=C(O)c1cccc(NC2O[C@H](CO)[C@@H](O)[C@H](O)[C@@H]2O)c1 (stereo partly drawn) [Specimen No. 3, Sodium m-aminobenzoate-N--D-mannoside] | 6 number per plate | > 10000 mg/kg | 90 number per plate | 0.74 g | 4.23 ng/g | no hemorrhage in the stomach was found | – |
| C[C@@H]1OC(Nc2ccccc2C(=O)O)[C@H](O)[C@H](O)[C@H]1O (stereo partly drawn) [Specimen No. 2, Sodium o-aminobenzoate-N--L-rhamnoside] | 9 number per plate | 12500 mg/kg | 61 number per plate | 0.81 g | 3.88 ng/g | no hemorrhage in the stomach was found | – |
